Key:
[1] = test system: male wistar rats fed with high-fat diet; assay: In vivo anti-obesity efficacy in rats fed high-fat diet; parameters: species or system rat; settings: 85.6 mg/day by gavage
Procedure: Total of 23 male wistar rats (6 weeks) were fed with high-fat diet (45% fat, OpenSource Diets D12451), and entacapone (85.6 mg/day) was administered to 12 randomly selected rats by gavage. After 8 weeks, the mean body weight of drug treatment group was about 11% less than that of control group (*p-value<0.05) (FIG. 4).

[2] = test system: Ldlr−/− mice fed western style diet; assay: Atherosclerosis model: Ldlr-deficient mice; assay type: in vivo, mouse; settings: 300 mg/kg orally blended with diet, after 8 weeks; Oil red O staining; p-value=0.08
Procedure: Atherosclerosis Model: Ldlr-Deficient Mice. We measured entacapone's anti-atherosclerosis efficacy using Ldlr^−/− mice fed western style diet (20% fat, 0.15% cholesterol), entacapone (300 mg/kg) was orally administered by blending with diet. After 8 weeks, the mean lesion area in aortic sinuses of drug treatment group was 28% less than that of control group (p-value=0.08) (FIG. 8). Therefore, entacapone reduces atherosclerosis symptom, comparing with the control.

[3] = test system: obese male C57BL/6 mice fed with high-fat diet; assay: In vivo anti-obesity efficacy in obese mice; parameters: species or system mouse; settings: 300 mg/kg orally blended with diet, after 13 weeks; p<0.05
Procedure: Male C57BL/6 mice were fed with high-fat diet (45% fat, OpenSource Diets D12451) for 8 weeks. Then obese mice with body weight 20% larger than that of mice fed with normal diet (20 mice) were selected for experiments. Entacapone (300 mg/kg) was orally administered to 10 randomly selected obese mice by blending with diet. After 13 weeks, the mean body weight gain of drug treatment group was about 11% less than that of control group (*p-value<0.05) (FIG. 9).

Huh-7 cell line = assay: Cellular triglyceride synthesis inhibition; assay type: cell-based; settings: Homo sapiens, dyeing method
Source text: FIG. 3. The dose-dependent inhibition activity of entacapone on triglyceride synthesis in Huh-7 cell line. The X-axis is the compound concentration. The Y-axis is “read-out” of the triglyceride concentration using dyeing method.

FTO protein = FTO protein (Homo sapiens, UniProt Q9C0B1); assay: FTO demethylation assay (enzymatic inhibition); assay type: biochemical; settings: substrate 0.5 μM, enzyme 0.1 μM; ssDNA with N6-mA; HPLC-MS/MS; read-out: IC50 against FTO
Chain of FTO protein (Q9C0B1 whole entry): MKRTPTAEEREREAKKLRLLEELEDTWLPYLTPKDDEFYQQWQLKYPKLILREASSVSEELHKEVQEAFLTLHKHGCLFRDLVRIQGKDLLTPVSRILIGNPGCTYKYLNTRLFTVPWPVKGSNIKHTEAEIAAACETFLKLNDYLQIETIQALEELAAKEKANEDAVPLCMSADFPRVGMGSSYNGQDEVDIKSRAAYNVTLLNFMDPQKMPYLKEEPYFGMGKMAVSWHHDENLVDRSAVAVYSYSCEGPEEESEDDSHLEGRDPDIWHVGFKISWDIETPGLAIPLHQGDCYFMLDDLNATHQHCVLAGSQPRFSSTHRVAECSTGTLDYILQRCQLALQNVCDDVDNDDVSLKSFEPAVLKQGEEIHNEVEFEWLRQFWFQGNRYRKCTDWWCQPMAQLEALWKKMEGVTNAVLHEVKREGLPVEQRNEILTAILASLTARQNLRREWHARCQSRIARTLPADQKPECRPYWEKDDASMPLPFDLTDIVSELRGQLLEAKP
Procedure: We measured the compound's inhibition activity in the demethylation reaction catalyzed by FTO. The assay was performed in 100 μl of reaction system containing 50 mM HEPES buffer (pH=7.0), 100 μM of a-KG, 100 μM of (NH4)2Fe(SO4)2, 1 mM of L-ascorbic acid, 50 ng/ml of BSA, 0.5 μM of ssDNA with N^6-mA (5′-ATTGTCA(m^6A)CAGCAGA-3′), and 0.1 μM of FTO protein. The reaction system was incubated at 37° C. for 2 h and stopped by heating at 95° C. for […] ssDNA was digested by nuclease P1 and alkaline phosphatase. The concentrations of N^6-mA and A were analyzed by HPLC-MS/MS. When concentration of substrate and enzyme are 0.5 μM and 0.1 μM, respectively, the measured IC50 value of entacapone against FTO is ˜9 μM (FIG. 2).

With `CCN(CC)C(=O)/C(C#N)=C/c1cc(O)c(O)c([N+](=O)[O-])c1` [entacapone, (2E)-2-cyano-3-(3,4-dihydroxy-5-nitrophenyl)-N,N-diethylprop-2-enamide] the “mean body weight less than that of control group” value ([1]; after 8 weeks, high-fat diet, p<0.05) was “about 11%”, the “decrease of LDL-c in serum compared to control group” value ([1]; after 8 weeks, p<0.005) was “about 40%” and the “adipose tissue change vs control (H&E staining)” value ([1]; high-fat diet) was “reduced size of adipose cells”. The “body-weight-normalized food intake vs control group” value ([1]; high-fat diet) was “no difference”, the “hepatic tissue change vs control (H&E staining)” value ([1]; high-fat diet) was “reduced level of liver steatosis” and the “Difference in serum LDL-cholesterol (drug treatment vs control group)” value ([1]; rat serum, p-value 0.0005) was −41.2%. The “Difference in serum Creatine kinase (drug treatment vs control group)” value ([1]; rat serum, p-value 0.2311) was −17.6%, the “Difference in serum Glutamic-pyruvic transaminase (drug treatment vs control group)” value ([1]; rat serum, p-value 0.4962) was −5.5% and the “Difference in serum Bilirubin (drug treatment vs control group)” value ([1]; rat serum, p-value 0.5814) was −10.1%. The “Difference in serum Cholesterol (drug treatment vs control group)” value ([1]; rat serum, p-value 0.6455) was −3.3%, the “Difference in serum Triglyceride (drug treatment vs control group)” value ([1]; rat serum, p-value 0.8023) was −3.8% and the “Difference in serum Albumin ratio (drug treatment vs control group)” value ([1]; rat serum, p-value 0.9473) was −0.063%. The “Difference in serum HDL-cholesterol (drug treatment vs control group)” value ([1]; rat serum, p-value 0.9972) was −0.026%, the “mean lesion area in aortic sinuses less than that of control group” value [2] was 28% and the “mean body weight gain less than that of control group” value [3] was “about 11%”. It also gave an IC50 (Huh-7 cell line) of about 15 µM and an IC50 (FTO protein) of about 9 µM.
